This is an account of results in paper PMC3779154, “Identification of Therapeutic Candidates for Chronic Lymphocytic Leukemia from a Library of Approved Drugs” (PLoS ONE, 2013).

pEC50, pIC50: −log10 of the molar value. Counter-ions that a name gives are not always drawn. Like-named read-outs stand apart in the source and are kept apart here. Starred links: 1 amine or outer side, 2 acyl side, 3 side chain; linkers in the order of their positions; H or OH if unused. Positions of bridges follow the written chain, without caps; N, C: chain ends. Non-standard residues stand in square brackets, D forms with d. Residues, ends and D or L forms follow the SMILES beside them. Chains are numbered I, II in the order given. Actinocin(9to1) = Cc1c2oc3c(C)ccc(C(=O)[*:1])c3nc-2c(C(=O)[*:2])c(N)c1=O; NMeV = CN[C@H](C(=O)O)C(C)C; Sar = CNCC(=O)O Bounds are passed on as bounds.

Data set [1] relates to fresh CLL patient lymphocytes. The experiment in a line: cells. As to conditions: Homo sapiens.
Experimental: (§1) Cell viability was measured using a luciferase-based ATP quantitation assay (CellTiter-Glo^TM, Promega). The intracellular ATP content indicates the number of viable (i.e. metabolically competent) cells after compound treatment. […] After that, a total of 23 nL of compounds at 8 selected concentrations from the NPC library or positive control (10 mM stock of doxorubicin hydrochloride) in DMSO was transferred to each well of the assay plate using a pintool (Kalypsys, San Diego, CA), and the plates were further incubated at 37 °C with 5% CO2 for 24 hours to allow the reaction. Then 4µL of CellTilter-Glo luminescent substrate mix was added to each well. The plate was incubated at room temperature for 15 minutes. The plates were measured on a ViewLux plate reader (PerkinElmer) with clear filter. […] The test volume of 5,000 cells/4 μL/well was selected as the final assay condition in cell density tests based on the assay performance statistics: signal/background ratio, coefficient of variation and Z’-factor (data not shown).
(§2) Fresh primary cells were also obtained from two unaffected normal donors and seven CLL patients whose blood samples were collected within hours of apheresis and which had not been included in our previous experiments.
In another data set the test system is primary CLL cells. The data set is described as follows: qHTS luminescent ATP cell viability assay (CellTiter-Glo), primary screen, frozen CLL patient cells. In kind it is cell-based, human. As to conditions: for cytotoxicity across CLL cell samples: six CLL patient samples, primary screen; for pIC50 / Emax: Homo sapiens, CLL cell; for Emax: CLL cells, 24 h, normalized to doxorubicin control, read-out: efficacy (maximal response). The text has this: Lymphocytes from 13 CLL treatment naïve patients (Table 1 ) and 5 normal donors were obtained by lymphapheresis with written informed consent and isolated by gradient centrifugation using Lymphocyte Separation Medium (MP Biomedicals, Solon, OH) and used fresh or cryopreserved in liquid nitrogen in 10% dimethyl sulfoxide, 90% FCS. CLL patients were consented on the institutional review board (IRB) approved at the National Heart, Lung, and Blood Institute (NHLBI, Office of Clinical Affairs, Bldg 10, CRC. Room 6-5140, Bethesda, Maryland 20892-1608) with protocol 04-H-0012 and samples from normal donors were collected by the Department of Transfusion Medicine, National Institutes of Health (NIH). This study was approved by the IRB mentioned above. Fresh cells were temporally placed on ice and plated for screening within 3 hrs of apheresis. Frozen cells were thawed the night before the assay and incubated in T175 flask in AIM V medium to recover overnight. Analysis of IGHV gene status was performed as described. CLL samples were cultured in AIM V serum free medium (Gibco-Invitrogen, Long Island, NY).
Compound formatting and qHTS were performed as described previously. The final concentration of the NPC compounds in the 4 µL assay volume ranged from 57 µM to 0.7 nM in 1:5 dilution steps. The positive control plate format was as follows: columns 1 and 3, DMSO only; column 2, doxorubicin, a known cytotoxic chemotherapy agent in a 1:2 dilution series from 10 µM to 5 nM in DMSO; and column 4, doxorubicin at 10 µM in DMSO.
To determine compound activity in the qHTS assay, the concentration-response data for each sample was plotted and modeled by a four parameter logistic fit yielding IC50 and efficacy (maximal response) values as previously described. Data normalization and curve fitting were performed using in-house informatics tools. Briefly, raw plate reads for each titration point were first normalized relative to the positive control compound (100%) and DMSO-only wells (basal, 0%), and then corrected by applying a pattern correction algorithm using compound-free control plates (i.e., DMSO-only plates) at the beginning and end of the NPC compound plate stack. […] In brief, Class 1.1 and 1.2 were the highest-confidence complete CRCs containing upper and lower asymptotes with efficacies ≥ 80% and < 80%, respectively. Class 2.1 and 2.2 were incomplete CRCs having only one asymptote with efficacy ≥ 80% and < 80%, respectively.
Compounds from the primary qHTS screen were further classified into three categories according to the quality of curve fit and efficacy.

Data set [2] deals with lymphocytes from normal donors. As to conditions: for potency shift between CLL and normal donor samples: fresh cells, normal IC50 vs CLL IC50; for pIC50: read-out: IC50 normal, average of 2 normal donors, fresh, Figure 5.
Experimental: (§3) Cell viability was measured using a luciferase-based ATP quantitation assay (CellTiter-Glo^TM, Promega). The intracellular ATP content indicates the number of viable (i.e. metabolically competent) cells after compound treatment. Four µL of CLL cells resuspended in AIM medium at 1,330,000 cells/ml, were dispensed into each well of white, solid bottom, 1536-well tissue culture–treated plates using a Multidrop-Combi dispenser and incubated overnight. After that, a total of 23 nL of compounds at 8 selected concentrations from the NPC library or positive control (10 mM stock of doxorubicin hydrochloride) in DMSO was transferred to each well of the assay plate using a pintool (Kalypsys, San Diego, CA), and the plates were further incubated at 37 °C with 5% CO2 for 24 hours to allow the reaction. Then 4µL of CellTilter-Glo luminescent substrate mix was added to each well. The plate was incubated at room temperature for 15 minutes. The plates were measured on a ViewLux plate reader (PerkinElmer) with clear filter.
(§4) These compounds were then re-tested in the cell viability assay using 12 point titrations with concentration ranging from 57 µM to 0.3 nM with 1:3 dilution.
as §2
The test system of data set [3] is lymphocytes from normal donors. The experiment in a line: cells. As to conditions: Homo sapiens, Lymphocyte, read-out: IC50 normal.
Experimental: as §3, §4, §2
In data set [4] the test system is fresh CLL patient lymphocytes.
Experimental: as §1, §2
For data set [5], the system named is ME-180 human cervical carcinoma cell line. The data set is described as follows: Cell viability assay, ME-180 cells (NPC library profiling). The text has this: Based on the definition of actives, inactives and inconclusive mentioned above, compounds were further clustered hierarchically using Spotfire DecisionSite 8.2 (Spotfire Inc., Cambridge, MA) based on their activity outcomes from the primary screen across a wide variety of cell viability assays against different cell lines or primary patient cells. Each compound was converted into an integer which represents its activity outcome in each cell viability assay. […] Integer 2 represents compounds in “inconclusive” category which is corresponding to light red in the heat map. […] Compounds not tested in the assay were labeled as 4 and shown as grey in the heat map.

The test system of a further data set is caspase-3/7. The experiment in a line: Caspase-Glo 3/7 activation assay in CLL samples. Type of data set: cell-based, human. As to conditions: read-out: EC50 caspase-3/7 activity; CLL samples, 24 hours. The procedure: The effect of selected compounds on caspase activity was measured using a homogeneous luminescent method (Caspase-Glo® 3/7, 8 and 9 kits, Promega, Madison, WI). Briefly in this assay, caspase induced by cells cleaves a pro-luciferin substrate where a tetrapeptide caspase substrate - DEVD (asp-glu-val-asp) is cleaved to free aminoluciferin, which can be used as a substrate by luciferase yielding a bioluminescent signal. The luminescent signal is proportional to the amount of caspase activity present in the cells. Cells were dispensed in culture medium at 5,000/cells/5uL/well in 1536-well white/solid-bottom assay plates. The cells were incubated for overnight at 37°C. The compounds (23nL/well) were added via the pin tool. The treated cells were further incubated for 24 h at 37°C, followed by the addition of the Caspase-Glo 3/7, 8 or 9 reagents at 5uL/well. After a 30 min incubation at room temperature, the luminescence intensity of the assay plates was measured using a ViewLux Plate Reader. The caspase activity was normalized to DMSO control.

Setting [6] is: Lymphocyte, 24 h, confirmation assay, fresh CLL samples, Table S1.
[7] abbreviates: Lymphocyte, read-out: IC50 CLL, average of cells from 7 CLL patients, fresh, Figure 5.
[8] abbreviates: read-out: IC50 CLL, average of cells from 7 CLL patients, fresh, Figure 5.
[9] abbreviates: confirmation assay, fresh CLL samples, 24 h, Table S1.

For `CC[C@@]1(O)C[C@H](O[C@H]2C[C@H](N(C)C)[C@H](O[C@H]3C[C@H](O)[C@H](O[C@H]4CCC(=O)[C@H](C)O4)[C@H](C)O3)[C@H](C)O2)c2c(cc3c(c2O)C(=O)c2c(O)cccc2C3=O)[C@H]1C(=O)OC` [aclarubicin hydrochloride], in data set [1] (Lymphocyte, 24 h), the pIC50 is above 6.00.

In turn, `Cc1c2oc3c(C)ccc(C(=O)N[C@@H]4C(=O)N[C@H](C(C)C)C(=O)N5CCC[C@H]5C(=O)N(C)CC(=O)N(C)[C@@H](C(C)C)C(=O)O[C@@H]4C)c3nc-2c(C(=O)N[C@@H]2C(=O)N[C@H](C(C)C)C(=O)N3CCC[C@H]3C(=O)N(C)CC(=O)N(C)[C@@H](C(C)C)C(=O)O[C@@H]2C)c(N)c1=O` [actinomycin D] (I: T[dV]P[Sar][NMeV] / II: T[dV]P[Sar][NMeV]; ester I:1-I:C, II:1-II:C; linker I:N-II:N via Actinocin(9to1)) showed a pIC50 in data set [1] (Lymphocyte, 24 h) above 6.00.

`Cn1c(CCCC(=O)O)nc2cc(N(CCCl)CCCl)ccc21` [bendamustine] showed a pIC50 in data set [1] (Lymphocyte, 24 h) of 4.52 to 4.92.

Consider `CC(C)C[C@H](NC(=O)[C@H](Cc1ccccc1)NC(=O)c1cnccn1)B(O)O` [bortezomib], for which the “cytotoxicity across CLL cell samples” value in the data set on primary CLL cells is listed as “cytotoxicity in all CLL cell samples at similar concentrations”. In addition, in data set [1] (setting [6]), the pIC50 was above 6.00.

`CO[C@@H]1[C@H](O)C[C@@H](O[C@@H]2C[C@H](Oc3cc4cc5c(c(O)c4c(O)c3C)C(=O)[C@@H](O[C@H]3C[C@@H](O[C@H]4C[C@@H](O[C@H]6C[C@](C)(O)[C@@H](OC(C)=O)[C@H](C)O6)[C@H](O)[C@@H](C)O4)[C@H](O)[C@@H](C)O3)[C@H]([C@H](OC)C(=O)[C@@H](O)[C@@H](C)O)C5)O[C@H](C)[C@@H]2OC(C)=O)O[C@@H]1C` [chromomycin A3] showed a pIC50 in data set [1] (Lymphocyte, 24 h) above 6.00.

Regarding `COc1cccc2c1C(=O)c1c(O)c3c(c(O)c1C2=O)C[C@@](O)(C(=O)CO)C[C@@H]3O[C@H]1C[C@H](N)[C@H](O)[C@H](C)O1` [doxorubicin], in data set [2], the “potency shift between CLL and normal donor samples” value was 3 fold. Moreover, the figures for the pIC50 in data set [1] (setting [7]) and in data set [3] were 5.35 and 4.84, respectively.

On to `Nc1nc(F)nc2c1ncn2[C@@H]1O[C@H](CO)[C@@H](O)[C@@H]1O` [fludarabine], for which the pIC50 was 5.03 in data set [2]; 4.91 in data set [4] (setting [8]); 4.92 in data set [4] (read-out: potency, comparable cell killing against CLL cells and normal lymphocytes).

For the compound `CC(=O)[C@]1(O)Cc2c(O)c3c(c(O)c2[C@@H](O[C@H]2C[C@H](N)[C@H](O)[C@H](C)O2)C1)C(=O)c1ccccc1C3=O` [idarubicin], the pIC50 in the data set with primary CLL cells (CLL patient #4705) was 5.49; with primary CLL cells (CLL patient #4789), 7.00; in the data set with primary CLL cells (CLL patient #4808), 7.00; in data set [1] (setting [6]), above 6.00. Further, in the data set with primary CLL cells (patient #4705 compared to #4789 and #4808), the potency shift was found to be 32 fold.

On to `CN(C)c1ccc(C(=C2C=CC(=[N+](C)C)C=C2)c2c(O)c(S(=O)(=O)[O-])cc3cc(S(=O)(=O)[O-])ccc23)cc1.[Na+]` [lissamine green B], for which, in data set [5], the “cytotoxicity in ME-180 cells” value is listed as “prominent cytotoxicity”.

As for `O=C1c2c(O)ccc(O)c2C(=O)c2c(NCCNCCO)ccc(NCCNCCO)c21` [mitoxantrone], the pIC50 was 5.22 in data set [1] (CLL cell, read-out: potency, comparable cell killing against CLL cells and normal lymphocytes); around 5.27 in data set [1] (setting [6]); 5.14 in data set [1] (setting [7]); 5.15 in data set [3].

In the case of `COC(=O)C[C@](O)(CCCC(C)(C)O)C(=O)O[C@@H]1C(OC)=C[C@]23CCCN2CCc2cc4c(cc2[C@H]13)OCO4` [omacetaxine mepesuccinate], the pIC50 in data set [1] (setting [6]) was above 6.00.

Turning to `CC(=O)[O][Hg][c]1ccccc1` [phenylmercuric acetate], in data set [5], the “cytotoxicity in ME-180 cells” value is listed as “prominent cytotoxicity”.

As for `C[n+]1cc2c3c(ccc2c2ccc4cc5c(cc4c21)OCO5)OCO3` [sanguinarine], the “cytotoxicity in ME-180 cells” value in data set [5] was “prominent cytotoxicity”.

Regarding `COc1cc([C@@H]2c3cc4c(cc3[C@@H](O[C@@H]3O[C@@H]5CO[C@@H](c6cccs6)O[C@H]5[C@H](O)[C@H]3O)[C@H]3COC(=O)[C@H]23)OCO4)cc(OC)c1O` [teniposide], the Emax in the data set with primary CLL cells is below 80%.

As for `C[C@H]1CC[C@]2(NC1)O[C@H]1C[C@H]3[C@@H]4CC[C@H]5C[C@@H](O[C@@H]6O[C@H](CO)[C@H](O[C@@H]7O[C@H](CO)[C@@H](O)[C@H](O[C@@H]8OC[C@@H](O)[C@H](O)[C@H]8O)[C@H]7O[C@@H]7O[C@H](CO)[C@@H](O)[C@H](O)[C@H]7O)[C@H](O)[C@H]6O)CC[C@]5(C)[C@H]4CC[C@]3(C)[C@H]1[C@@H]2C` [tomatine], the “cytotoxicity in ME-180 cells” value in data set [5] was “prominent cytotoxicity”.

Turning to `COc1cc2c(cc1O)CCN[C@]21CS[C@@H]2c3c(OC(C)=O)c(C)c4c(c3[C@H](COC1=O)N1[C@@H]2[C@H]2c3c(cc(C)c(OC)c3O)C[C@@H]([C@@H]1O)N2C)OCO4` [trabectedin], the “cytotoxicity across CLL cell samples” value in the data set on primary CLL cells is listed as “cytotoxicity in all CLL cell samples at similar concentrations”. The compound also gave a pIC50 in data set [1] (setting [6]) above 6.00.

Take `Cc1cc(-c2ccc(/N=N/c3c(S(=O)(=O)O)cc4cc(S(=O)(=O)O)cc(N)c4c3O)c(C)c2)ccc1/N=N/c1c(S(=O)(=O)O)cc2cc(S(=O)(=O)O)cc(N)c2c1O` [trypan blue]: the “cytotoxicity in ME-180 cells” value in data set [5] is listed as “prominent cytotoxicity”.

`CC[C@]1(O)C[C@@H]2CN(CCc3c([nH]c4ccccc34)[C@@](C(=O)OC)(c3cc4c(cc3OC)N(C)[C@H]3[C@@](O)(C(=O)OC)[C@H](OC(C)=O)[C@]5(CC)C=CCN6CC[C@]43[C@@H]65)C2)C1` [vinblastine]: the “fold more potent in CLL sample #4808 than #4399” value in the data set on primary CLL cells (CLL sample #4808 vs #4399) was above 100 fold. Also, the Emax in the data set on primary CLL cells was above 80%.

`CC[C@]1(O)C[C@H]2CN(CCc3c([nH]c4ccccc34)[C@@](C(=O)OC)(c3cc4c(cc3OC)N(C=O)[C@H]3[C@@](O)(C(=O)OC)[C@H](OC(C)=O)[C@]5(CC)C=CCN6CC[C@]43[C@@H]65)C2)C1` [vincristine] gave a pIC50 in data set [4] (setting [9]) above 6.00.

With ivermectin, in data set [5], the “cytotoxicity in ME-180 cells” value is reported as “prominent cytotoxicity”.

Take plicamycin: the pEC50 in the data set with caspase-3/7 was 6.37. Besides, in data set [2] (at 19 µM and 57 µM, the two highest testing concentrations), the “difference in efficacy between CLL and unaffected donor samples” value was “over 40%”. In data set [2], the “potency shift between CLL and normal donor samples” value is reported as “about 3 fold”. The pIC50 was 6.08 in data set [2], above 6.00 in data set [4] (setting [9]) and 6.12 in data set [4] (setting [8]). The “decreased efficacy to normal B cells” value in data set [2] (versus CLL cells) is “over 40%”.
